# Reference: patent US20210181109A1 (FUJIFILM Corporation, priority 2018, published 2021)
# Tests used:
# [1] = NAC depletion percent, HPLC-fluorescence detection
# Protocol: (§1) 1) To a 50 mL vessel, 11.6 mg (±0.1 mg) of NAC is weighed; to this, a 25 mL measuring pipet is used to add 20 mL of 100 mmol/L phosphate buffer (pH: 8.0); and the content is gently stirred using a test tube mixer to achieve dissolution (2 mmol/L). 2) To a 500 mL vessel, 149.5 mL of this buffer is added using a 50 mL measuring pipet; to this, 0.5 mL of the above-described 2 mmol/L NAC solution is added; and the content is mixed by inversion to achieve 300-fold dilution (6.667 μmon).
# (§2) The test substance undiluted solution is defined as an “undiluted solution”, and used. Incidentally, this “undiluted solution” may be appropriately diluted to, for example, 1/10, 1/100, or 1/1000, using an appropriate solvent, and the resultant solution may be used.
# (§3) Subsequently, the solution having the maximum dissolution concentration is defined as an “undiluted solution”, and tested. Incidentally, this “undiluted solution” may be appropriately diluted to, for example, 1/10, 1/100, or 1/1000, using an appropriate solvent, and the resultant solution may be used.
# (§4) The test substance is prepared at 1 mmol/L in any of solvents that are water, acetonitrile, acetone, and a 5 mass % dimethyl sulfoxide (DMSO)/acetonitrile solution and used as a test substance solution. As the solvent, a solvent in which the test substance dissolves at 1 mmol/L is used; when the test substance is soluble in a plurality of solvents, the solvent is selected in the following order of decreasing precedence: water, acetonitrile, acetone, and 5 mass % DMSO/acetonitrile.
# (§5) Test substance solutions are prepared on a 96-well plate (U96 PP-0.5 ML NATURAL, Thermo Fisher Scientific Inc. (NUNC)) mainly using a 12-channel pipette, and a reagent is added in accordance with the following formula.
# (§6) Nucleophilic reagent (NAC and NAL): 150 μL
# (§7) Test substance solution: 50 μL
# (§8) The plate is tightly sealed using a plate sealing (Resistant embossed seal, SHIMADZU GLC Ltd.), and stirred using a plate shaker (Titramax 100, Heidolph Instruments GmbH & CO. KG). The plate is subjected to spinning down using a centrifuge, and then to incubation at 25° C., for 24 hours, in a light-shielded state.
# (§9) After the incubation for 24 hours, the plate sealing is removed; to each sample, 50 µL of the reaction stopping solution is added to stop the reaction.
# (§10) The HPLC measurement conditions for the nucleophilic reagents are as follows.
# (§11) From the average values (each, n=3) of peak areas of the post-reaction unreacted NAC or NAL and the blank-test (after performing the reaction step without addition of the test substances) NAC or NAL, the following formula is used to calculate the depletion percent of NAC or NAL.
# (§12) NAC depletion percent (% depletion)=[1−(Average value of peak areas of post-reaction unreacted NAC/Average value of peak areas of blank-test (after performing the reaction step without addition of the test substances) NAC)]×100
# (§13) The average value of peak areas of the post-reaction unreacted NAC is the average value of areas obtained by measuring three times post-reaction unreacted NAC. The average value of peak areas of blank-test (after performing the reaction step without addition of the test substances) NAC is the average value of areas obtained by measuring three times blank-test (after performing the reaction step without addition of the test substances) NAC.
# (§14) The reactions were each performed on a 96-well plate, and the number of samples of each case was set to n=3. In addition, as controls, reaction solutions including the solvent alone were prepared. The reaction solutions were prepared so as to have a NAC or NAL concentration of 5 μmon. To the reaction solutions after the lapse of 24 hours, a trifluoroacetic acid (TFA) aqueous solution was added such that the final concentration became 0.5% (v/v) TFA. Subsequently, HPLC was performed for measurements by two detection methods that were light absorption detection using a photodiode array (PDA) detector, and fluorescence detection using a fluorescence detector.
# [2] = NAL depletion percent, HPLC-fluorescence detection
# Protocol: as §1, with “12.6” for “11.6”, “NAL” for “NAC”, “10.2);” for “8.0);”, “mixture” for “mixer”, “mmol/L NAL solution).” for “mmol/L).”, “μmol/L).” for “μmon).”
# as §2, §3, §4, §5, §6, §7, §8, §9, §10, §11
# (§15) NAL depletion percent (% depletion)=[1−(Average value of peak areas of post-reaction unreacted NAL/Average value of peak areas of blank-test (after performing the reaction step without addition of the test substances) NAL)]×100
# (§16) The average value of peak areas of post-reaction unreacted NAL is the average value of areas obtained by measuring three times post-reaction unreacted NAL. The average value of peak areas of blank-test (after performing the reaction step without addition of the test substances) NAL is the average value of areas obtained by measuring three times blank-test (after performing the reaction step without addition of the test substances) NAL.
# as §14
# [3] = Average score of NAC and NAL depletion and prediction of skin allergenicity, fluorescence method; details: for Average score: test substance solution 1 mmol/L; for determination of skin allergenicity from average score: criterion […]
# Protocol: (§17) The average value (Average Score) of NAC and NAL depletion percents is calculated. In the resultant value, the second decimal place is rounded off.
# (§18) Average value (Average Score) of NAC and NAL depletion percents=(NAC depletion percent+NAL depletion percent)/2
# (§19) The depletion percent of at least one of NAC or NAL or the average score of the depletion percents of NAC and NAL is calculated, and whether or not the test substances are “allergenic substances” or “non-allergenic substances” is determined:
# (§20) (1) in a case of performing evaluation based on the average value of the depletion percent of NAC and the depletion percent of NAL,
# (§21) In the following Tables, S represents as being an allergenic substance and NS represents as being a non-allergenic substance.
# [4] = NAC depletion percent, HPLC-UV detection (281 nm)
# Protocol: as §1, §2, §3, §4, §5, §6, §7, §8, §9, §10, §11, §12, §13, §14
# [5] = NAL depletion percent, HPLC-UV detection (281 nm)
# Protocol: as §1, with “12.6” for “11.6”, “NAL” for “NAC”, “10.2);” for “8.0);”, “mixture” for “mixer”, “mmol/L NAL solution).” for “mmol/L).”, “μmol/L).” for “μmon).”
# as §2, §3, §4, §5, §6, §7, §8, §9, §10, §11, §15, §16, §14
# [6] = Average score of NAC and NAL depletion and prediction of skin allergenicity, UV method; details: for Average score: test substance solution 1 mmol/L; for Mean Depletion (%) (average score) / determination of skin allergenicity from average score: UV method; for determination of skin allergenicity from average score: criterion […]
# Protocol: as §17, §18, §19, §20, §21
# [7] = Fluorescence method, non-allergenic substance
# [8] = Fluorescence method, skin allergenicity prediction
# [9] = Reference (UV method), non-allergenic substance
# [10] = Reference (UV method), skin allergenicity prediction
# [11] = single substance, test substance solution 1 mmol/L, fluorescence method
# [12] = single substance, fluorescence method
# [13] = single substance, test substance solution 1 mmol/L, Reference (UV method)
# [14] = single substance, Reference (UV method)
# [15] = 1/1 (undiluted solution), fluorescence method, 25° C. 24 hours
# [16] = 1/10 diluted solution, fluorescence method
# [17] = 1/1 (undiluted solution), fluorescence method
# [18] = 1/1 (undiluted solution), UV method
# [19] = 1/10 diluted solution, UV method
SMILES,"NAC depletion (%) [1, 7] [%]","NAL depletion (%) [2, 7] [%]","Prediction result [3, 8]","NAC depletion (%) [4, 9] [%]","NAL depletion (%) [5, 9] [%]","Prediction result [6, 10]",also measured
CC(O)C(=O)O (centres unmarked) [Lactic acid],1.4,0.0,NS (NS represents as being a non-allergenic substance),0.0,2.8,NS (NS represents as being a non-allergenic substance),
CC(C=O)Cc1ccc(C(C)(C)C)cc1 (centres unmarked) [Lilial],,,,,,,"NAC depletion (%) [1, 11]: 18.0%; NAL depletion (%) [2, 11]: 0.2%; Prediction result [3]: S (key: S represents as being an allergenic substance; NS represents as being a non-allergenic substance); Average score [3, 12]: 9.1%; NAC depletion (%) [4, 13]: 7.0%; NAL depletion (%) [5, 13]: 3.9%; Prediction result [6]: S (key: S represents as being an allergenic substance; NS represents as being a non-allergenic substance); Average score [6, 14]: 5.4%"
COC(=O)c1ccccc1O [Methyl salicylate],0.3,0.0,NS (NS represents as being a non-allergenic substance),0.0,0.4,NS (NS represents as being a non-allergenic substance),
COC(=O)c1ccc(O)cc1 [Methylparaben],0.7,4.7,NS (NS represents as being a non-allergenic substance),0.1,1.3,NS (NS represents as being a non-allergenic substance),
CCCCCCCC(=O)O [Octanoic acid],0.0,0.0,NS (NS represents as being a non-allergenic substance),0.0,1.2,NS (NS represents as being a non-allergenic substance),
O=C(O)C(=O)O [Oxalic acid],,,,,,,"NAC depletion (%) [1, 11]: 0.0%; NAL depletion (%) [2, 11]: 0.3%; Average score [3, 12]: 0.1%; NAC depletion (%) [4, 13]: 0.0%; NAL depletion (%) [5, 13]: 3.6%; Average score [6, 14]: 1.8%"
CC(O)CO (centres unmarked) [Propylene glycol],0.7,5.0,NS (NS represents as being a non-allergenic substance),0.1,2.2,NS (NS represents as being a non-allergenic substance),
O=C(O)c1ccc(O)c(O)c1 [Protocatechuic acid],,,,,,,"NAC depletion (%) [1, 15]: 58.1%; NAC depletion (%) [1, 16]: 27.3%; NAL depletion (%) [2, 15]: 38.3%; NAL depletion (%) [2, 16]: 11.5%; Mean Depletion (%) (average score) [3, 17]: 48.2%; determination of skin allergenicity from average score [3, 17]: having skin allergenicity; Mean Depletion (%) (average score) [3, 16]: 19.4%; determination of skin allergenicity from average score [3, 16]: having skin allergenicity; NAC depletion (%) [4, 18]: 60.8%; NAC depletion (%) [4, 19]: 30.1%; NAL depletion (%) [5, 18]: 18.6%; NAL depletion (%) [5, 19]: 11.9%; Mean Depletion (%) (average score) ([6]; 1/1 (undiluted solution)): 39.7%; determination of skin allergenicity from average score ([6]; 1/1 (undiluted solution)): having skin allergenicity; Mean Depletion (%) (average score) ([6]; 1/10 diluted solution): 21.0%; determination of skin allergenicity from average score ([6]; 1/10 diluted solution): having skin allergenicity"
Oc1cccc(O)c1 [Resorcinol],,,,,,,"NAC depletion (%) [1, 11]: 0.8%; NAL depletion (%) [2, 11]: 1.6%; Prediction result ([3]; single substance, fluorescence method, criterion average score […]): NS (NS represents as being a non-allergenic substance); Average score [3, 12]: 1.2%; NAC depletion (%) [4, 13]: 4.0%; NAL depletion (%) [5, 13]: 2.2%; Prediction result ([6]; single substance, Reference (UV method), criterion average score […]): NS (NS represents as being a non-allergenic substance); Average score [6, 14]: 3.1%"
O=C(O)c1ccccc1O [Salicylic acid],0.1,4.3,NS (NS represents as being a non-allergenic substance),0.0,0.4,NS (NS represents as being a non-allergenic substance),
Nc1ccc(S(N)(=O)=O)cc1 [Sulfanilamide],0.5,3.6,NS (NS represents as being a non-allergenic substance),0.0,1.4,NS (NS represents as being a non-allergenic substance),
Nc1ccc(S(=O)(=O)O)cc1 [Sulfanilic acid],0.0,0.1,NS (NS represents as being a non-allergenic substance),0.5,0.4,NS (NS represents as being a non-allergenic substance),
COc1cc(C=O)ccc1O [Vanillin],2.0,0.0,NS (NS represents as being a non-allergenic substance),1.5,1.9,NS (NS represents as being a non-allergenic substance),
